The test system of one test is MOLM-14. In words: Cytotoxicity against human MOLM-14 cells assessed as inhibition of cell growth incubated for 72 hrs by alamar blue assay. It counts as functional, cell-based. As to conditions: MOLM-14, 72 h. A general note: Resazurin is reduced to fluorescent resorufin, in cell work by metabolically active cells.
The target in test [1] is Protein cereblon/Tyrosine-protein kinase BTK (Homo sapiens, UniProt Q06187+Q96SW2). Briefly: Protac activity at CRBN/BTK in human MOLM-14 cells assessed as induction of BTK degradation incubated for 24 hrs by Western blot analysis. Format: cell-based. (In general: Immunoblotting shows a protein as a band on a membrane.)
Test [2] addresses E3 ubiquitin-protein ligase Mdm2 (Homo sapiens, UniProt Q00987). In words: Binding affinity to human MDM2 assessed as inhibition constant by competitive binding based fluorescence polarization analysis. A general note: Polarisation of emitted light reports the rotation of a fluorescent probe.
For another test, the system named is A549. In words: Antiproliferative activity against human A549 cells assessed as cell growth inhibition measured after 72 hrs by CCK-8 assay. Format: functional, cell-based. As to conditions: A549, 72 h.

This note sets out measurements from ChEMBL document CHEMBL5126527, “Emerging targeted protein degradation tools for innovative drug discovery: From classical PROTACs to the novel and beyond” (Eur J Med Chem, 2022).

One may read the IC50 as the midpoint of a concentration-inhibition curve. Broadly, the EC50 is the concentration that produces a half-maximal response. The Ki is the dissociation constant of the complex between target and ligand, obtained from inhibition or displacement.

Chain of E3 ubiquitin-protein ligase Mdm2 (Q00987 whole entry): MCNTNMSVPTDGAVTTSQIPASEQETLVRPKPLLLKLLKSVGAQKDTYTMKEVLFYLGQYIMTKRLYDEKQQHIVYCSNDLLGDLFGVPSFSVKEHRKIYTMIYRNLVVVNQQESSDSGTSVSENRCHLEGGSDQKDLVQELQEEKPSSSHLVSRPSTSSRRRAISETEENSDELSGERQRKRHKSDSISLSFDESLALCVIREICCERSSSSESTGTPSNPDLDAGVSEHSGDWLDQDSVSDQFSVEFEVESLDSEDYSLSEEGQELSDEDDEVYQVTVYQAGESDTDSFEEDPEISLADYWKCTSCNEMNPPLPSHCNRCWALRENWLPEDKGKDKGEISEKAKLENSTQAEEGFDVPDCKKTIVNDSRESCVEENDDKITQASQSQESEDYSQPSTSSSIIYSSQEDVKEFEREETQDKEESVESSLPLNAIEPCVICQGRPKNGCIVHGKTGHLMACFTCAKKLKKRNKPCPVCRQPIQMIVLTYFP
Chain of Protein cereblon/Tyrosine-protein kinase BTK (Q06187 whole entry): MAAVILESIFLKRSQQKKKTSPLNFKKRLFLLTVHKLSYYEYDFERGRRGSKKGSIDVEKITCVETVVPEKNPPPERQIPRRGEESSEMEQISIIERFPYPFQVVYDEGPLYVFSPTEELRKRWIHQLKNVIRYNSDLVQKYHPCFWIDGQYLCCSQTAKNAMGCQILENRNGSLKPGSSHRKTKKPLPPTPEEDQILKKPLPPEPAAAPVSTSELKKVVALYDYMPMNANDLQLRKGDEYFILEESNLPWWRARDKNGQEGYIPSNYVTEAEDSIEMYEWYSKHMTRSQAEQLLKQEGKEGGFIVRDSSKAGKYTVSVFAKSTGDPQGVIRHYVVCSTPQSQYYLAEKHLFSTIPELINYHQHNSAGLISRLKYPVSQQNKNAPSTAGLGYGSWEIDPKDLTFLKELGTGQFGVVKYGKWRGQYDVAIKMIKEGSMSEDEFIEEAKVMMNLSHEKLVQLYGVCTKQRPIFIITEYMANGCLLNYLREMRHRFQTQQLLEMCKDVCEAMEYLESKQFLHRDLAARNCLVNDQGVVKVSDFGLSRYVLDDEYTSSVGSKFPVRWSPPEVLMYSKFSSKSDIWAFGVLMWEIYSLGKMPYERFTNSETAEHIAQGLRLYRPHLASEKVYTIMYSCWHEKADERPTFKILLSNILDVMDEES
Chain of Protein cereblon/Tyrosine-protein kinase BTK (Q96SW2 whole entry): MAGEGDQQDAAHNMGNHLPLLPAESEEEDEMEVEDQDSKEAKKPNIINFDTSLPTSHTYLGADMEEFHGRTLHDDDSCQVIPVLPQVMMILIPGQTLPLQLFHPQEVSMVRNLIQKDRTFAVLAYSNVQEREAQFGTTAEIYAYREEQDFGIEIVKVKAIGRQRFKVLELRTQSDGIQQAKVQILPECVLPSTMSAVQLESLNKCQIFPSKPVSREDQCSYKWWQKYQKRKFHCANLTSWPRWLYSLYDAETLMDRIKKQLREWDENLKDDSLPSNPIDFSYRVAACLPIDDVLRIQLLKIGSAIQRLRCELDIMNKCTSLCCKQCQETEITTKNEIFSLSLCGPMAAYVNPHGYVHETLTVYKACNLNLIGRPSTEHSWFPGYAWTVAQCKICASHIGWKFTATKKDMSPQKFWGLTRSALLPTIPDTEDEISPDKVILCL

For `CN(CCCNC(=O)CNc1cccc2c1C(=O)N(C1CCC(=O)NC1=O)C2=O)C(C)(C)C=C(C#N)C(=O)N1CCC[C@@H](n2nc(-c3ccc(Oc4ccccc4)cc3)c3c(N)ncnc32)C1` (some centres undefined), the IC50 in the test with MOLM-14 was 300 nM. Further, the EC50 in test [1] amounted to 6.6 nM.
Regarding `CCOc1cc(C(C)(C)C)ccc1C1=NC(c2ccc(Cl)cc2)C(c2ccc(Cl)cc2)N1C(=O)N1CCN(CC(=O)NCCOCCOCCOCCNC(=O)CN2CCN(C(=O)N3C(c4ccc(C(C)(C)C)cc4OCC)=NC(c4ccc(Cl)cc4)C3c3ccc(Cl)cc3)CC2=O)C(=O)C1` (centres undefined), the Ki in test [2] stood at 100 nM. Besides, the IC50 in the test on A549 came out at 1000 nM.
